# Source: patent publication US20130267516A1, “SUBSTITUTED CYCLOPENTYL-AZINES AS CASR-ACTIVE COMPOUNDS” (LEO PHARMA A/S, priority 2010, published 2013)
# Assay: Clearance in rat hepatocytes
# Assay type: in vitro ADME
# Settings: hepatic extraction ratio; 0.5 μM compound, 1×10^6 cells/mL, 20 min
# Method: Test compounds and 4 control compounds are tested in duplicate per run. Test compound concentration is 0.5 μM and cell concentration is 1×10^6 cells/mL in the incubation. The described method is performed by the liquid handling system Tecan RSP and is based on a 96-well format.
# The liver is collected from a male Spraque-Dawley rat. One liver lobe is cut off and flushed with various buffers to loosen the cells. The cell suspension is washed and centrifuged, and the cell density is adjusted to 1.2×10^6 cells/mL with Krebs-Henseleit buffer, pH 7.4, containing 0.2% bovine serum albumin (BSA). Only cell suspensions with viability above 80% are used.
# The cell suspension is pre-heated (20 min) to 37° C. Test compound is added, and the mixture is incubated for 20 minutes. Incubations are run in duplicate. Samples are withdrawn at predetermined stop times and mixed with methanol containing internal standard (IS) to terminate all enzyme activity and precipitate proteins.
# The percentage of organic solvent in the incubations is less than 1%. Careful inspections of reagents are performed prior to the start of any experiment to ensure all reagents are in solution.
# The 96-well plates are centrifuged. Test compound depletion, using a compound specific LC/MS/MS method, is determined.
# Data analysis is performed as described above in the section “Biological assay for analysis of clearance in human liver microsomes”, with the following modifications:
# Intrinsic clearance (Clint) (mL/min/10^6 cells) is calculated from: […]
# where c is the cell concentration in 10^6 cells/mL.
# The following scaling factors for rat are used for eq. 4:
# a: 120 (cells/liver weight (10^6 cells/g)) b: 10 (liver weight (g)) d: 0.25 (body weight (kg))
# Liver blood flow in rats (for eq. 5):
# Apparent clearance below approximately 25 mL/min/kg rat body weight (corresponding to an extraction ratio of approx. 33%) is considered as low clearance (high metabolic stability). Apparent intrinsic clearance above approximately 165 mL/min/kg rat body weight (corresponding to an extraction ratio of approx. 75%) is considered as high clearance (low metabolic stability).
row,SMILES,Clearance (% Eh) in rat hepatocytes
1,"COc1cc([C@@H](C)N[C@H]2CC[C@@H](c3cnc(N4CCN(C(C)=O)CC4)nc3)C2)ccc1F.O=CO [Compound 127, 1-[4-[5-[(1R,3S)-3-[[(1R)-1-(4-Fluoro-3-methoxy-phenyl)ethyl]amino]cyclopentyl]pyrimidin-2-yl]piperazin-1-yl]ethanone]",A (A: Eh < 33%)
2,"COc1cc([C@@H](C)N[C@H]2CC[C@@H](c3ccc(NC4CCNCC4)nc3)C2)ccc1F [Compound 107, 5-[(1R,3S)-3-[[(1R)-1-(4-Fluoro-3-methoxy-phenyl)ethyl]amino]cyclopentyl]-N-(4-piperidyl)pyridin-2-amine]",A (A: Eh < 33%)
3,"COc1cc([C@@H](C)N[C@H]2CC[C@@H](c3cnc(N4CCNC(=O)C4)nc3)C2)ccc1F [Compound 126, 4-[5-[(1R,3S)-3-[[(1R)-1-(4-Fluoro-3-methoxy-phenyl)ethyl]amino]cyclopentyl]pyrimidin-2-yl]piperazin-2-one]",B (B: 33% ≦ Eh ≦ 75%)
4,"COc1cc([C@@H](C)N[C@H]2CC[C@@H](c3ccc(NCCS(N)(=O)=O)nc3)C2)ccc1F [Compound 113, 2-[[5-[(1R,3S)-3-[[(1R)-1-(4-Fluoro-3-methoxyphenyl)ethyl]amino]cyclopentyl]-2-pyridyl]amino]ethanesulfonamide]",A (A: Eh < 33%)
5,"C[C@@H](N[C@H]1CC[C@@H](c2ccc(NCCNCCO)nc2)C1)c1cccc2ccccc12.O=CO.O=CO.O=CO [Compound 101, 2-[2-[[5-[(1R,3S)-3-[[(1R)-1-(1-Naphthyl)ethyl]amino]cyclopentyl]-2-pyridyl]amino]ethylamino]ethanol]",B (B: 33% ≦ Eh ≦ 75%)
6,"COc1cc([C@@H](C)N[C@H]2CC[C@@H](c3ccc(N4CCNC(=O)C4)nc3)C2)ccc1F [Compound 109, 4-[5-[(1R,3S)-3-[[(1R)-1-(4-Fluoro-3-methoxy-phenyl)ethyl]amino]cyclopentyl]-2-pyridyl]piperazin-2-one]",A (A: Eh < 33%)
7,"COc1cc([C@@H](C)N[C@H]2CC[C@@H](c3ccc(NCC(O)CO)nc3)C2)ccc1F (stereo partly drawn) [Compound 115, 3-[[5-[(1R,3S)-3-[[(1R)-1-(4-Fluoro-3-methoxyphenyl)ethyl]amino]cyclopentyl]-2-pyridyl]amino]propane-1,2-diol]",A (A: Eh < 33%)
8,"COc1cc([C@@H](C)N[C@H]2CC[C@@H](c3ccc(N4CCN(C(C)=O)CC4)nc3)C2)ccc1F [Compound 116, 1-[4-[5-[(1R,3S)-3-[[(1R)-1-(4-Fluoro-3-methoxyphenyl)ethyl]amino]cyclopentyl]-2-pyridyl]piperazin-1-yl]ethanone]",A (A: Eh < 33%)
